This is an account of results in patent publication US20090269753A1 (priority 2007, published 2009).

The nature of test [1]: Hip and lumbar BMD by DXA at baseline and after 12 months of tamoxifen treatment. It is filed as in vivo, women. The source says:
Patients were enrolled after they had completed all primary surgery, radiation, and adjuvant chemotherapy.

The test system of another test is fasl. As to the kind of experiment: fasl real-time RT-PCR in SRC-1-/- osteoclasts transfected with SRC-1 WT or P1272S. It is filed as cell-based, mice. As to conditions: estradiol 10 nM or 40H-Tamoxifen 1 μM, 24 h.
The mark [2] stands for this setting: SRC-1-/- osteoclasts with P1272S SRC-1.
The mark [3] stands for this setting: SRC-1-/- osteoclasts with transfected Flag-SRC-1 WT vs vector alone.

Regarding `CC/C(=C(\c1ccccc1)c1ccc(OCCN(C)C)cc1)c1ccccc1` [Tamoxifen, tamoxifen], the “Lumbar BMD decrease” value in test [1] (P1272S carriers (n=4), p=0.04 vs women without the SNP) is reported as 6.4%; in test [1] (women without the SNP (n=107)), 1.3%. Besides, the “hip BMD decrease” value in test [1] (SNP carriers (n=4), p=0.08 vs WT group) was determined as 4.3%; in test [1] (WT group (n=102)), 0.6%. Besides, the Induction of fasl result in the test with fasl (setting [2]) was “failed to upregulate fasl”; in the test on fasl (setting [3]) it was “detectable”.
Turning to `C[C@]12CC[C@@H]3c4ccc(O)cc4CC[C@H]3[C@@H]1CC[C@@H]2O` [Estrogen, estradiol], the Induction of fasl entry in the test on fasl (setting [2]) is given as “failed to upregulate fasl”; with fasl (setting [3]), “detectable”.
